Experiment [1] addresses T1, human LXR alpha ligand binding domain (LXRα-LBD) (Homo sapiens, UniProt Q13133).
T1 construct: human LXR alpha (aa 164 to 447); unspecified tag ('tagged versions'); made in house; host or cells: E. coli BL21 (pLysS)
T1 sequence (Q13133 164-447): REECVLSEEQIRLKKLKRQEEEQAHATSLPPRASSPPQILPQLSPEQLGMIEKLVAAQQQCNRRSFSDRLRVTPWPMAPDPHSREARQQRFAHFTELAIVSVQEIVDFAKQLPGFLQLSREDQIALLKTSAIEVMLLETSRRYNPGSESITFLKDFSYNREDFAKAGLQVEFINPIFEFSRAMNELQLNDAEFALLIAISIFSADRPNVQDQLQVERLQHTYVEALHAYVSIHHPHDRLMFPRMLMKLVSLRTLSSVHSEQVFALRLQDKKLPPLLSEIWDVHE
In words: Radioligand binding assay (SPA), LXR alpha. The conditions noted are these: LXRα-LBD on SPA beads, read-out: LXRalpha Binding IC50. How it is done: (§1) The following tests were carried out in order to determine the activity of the compounds of the present invention. Background information on the performed assays can be found in: Nichols J S et al. “Development of a scintillation proximity assay for peroxisome proliferator-activated receptor gamma ligand binding domain”, Anal Biochem. 1998, 257: 112-119.
(§2) Mammalian expression vectors were constructed to express full-length human LXR alpha and LXR beta. Bacterial expression vectors were constructed to produce tagged versions of the ligand binding domains (LBD) of human LXR alpha (aa 164 to 447) and human LXR beta (aa 155 to 460). To accomplish this, the portions of the sequences encoding the LBDs were amplified from the full-length clones by PCR and then subcloned into the plasmid vectors. Final clones were verified by DNA sequence analysis (Willy et al., Genes Dev. 1995, 9:1033-45; Song et al., Proc Natl Acad Sci USA.1994, 91:10809-13).
(§3) Induction, expression, and purification of LBD proteins were performed in E. coli strain BL21 (pLysS) cells by standard methods (Ref: Current Protocols in Molecular Biology, Wiley Press, edited by Ausubel et al).
(§4) Radioligand Binding Assay
(§5) LXR alpha and LXR beta receptor binding were assayed in buffer consisting of 50 mM HEPES, pH 7.4, 10 mM NaCl, 5 mM MgCl2. For each 96-well reaction, 500 ng of LXRα-LBD or 700 ng of LXR beta-LBD proteins were bound to 80 μg or 40 μg SPA beads respectively, in a final volume of 50 μl by shaking. The resulting slurry was incubated for 1 h at RT and centrifuged for 2 min at 1300×g. The supernatant containing unbound protein was removed, and the semi-dry pellet containing the receptor-coated beads was re-suspended in 50 μl of buffer. […] All binding assays were performed in 96-well plates and the amount of bound ligand was measured on a Packard TopCount using OptiPlates (Packard). Dose response curves were measured within a range of concentration from 10^−10 M to 10^−4 M.

In experiment [2] the target is T2, human LXR beta ligand binding domain (LXR beta-LBD) (Homo sapiens, UniProt P55055).
T2 construct: human LXR beta (aa 155 to 460); unspecified tag ('tagged versions'); made in house; host or cells: E. coli BL21 (pLysS)
T2 sequence (P55055 155-460): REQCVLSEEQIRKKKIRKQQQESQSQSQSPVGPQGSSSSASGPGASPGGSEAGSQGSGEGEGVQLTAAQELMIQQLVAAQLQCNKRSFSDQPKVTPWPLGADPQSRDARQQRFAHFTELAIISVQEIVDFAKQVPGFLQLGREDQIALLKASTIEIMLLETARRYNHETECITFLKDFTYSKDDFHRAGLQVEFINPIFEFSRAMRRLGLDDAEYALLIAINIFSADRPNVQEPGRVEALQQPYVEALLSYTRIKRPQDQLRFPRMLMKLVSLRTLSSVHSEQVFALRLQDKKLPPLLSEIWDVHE
Put plainly: Radioligand binding assay (SPA), LXR beta. The conditions noted are these: LXR beta-LBD on SPA beads, read-out: LXRbeta Binding IC50. How it is done:
as §1, §2, §3, §4, §5

Structures are written as SMILES.

With `O=C(C1CN(S(=O)(=O)c2ccccc2)C(=O)N1c1ccccc1Cl)N1CCN(c2ncccc2Cl)CC1` (racemic) [Example 63, (RS)-1-Benzenesulfonyl-3-(2-chloro-phenyl)-4-[4-(3-chloro-pyridin-2-yl)-piperazine-1-carbonyl]-imidazolidin-2-one], the 50% inhibitory concentration (IC50) in experiment [1] was 2.5 µM; in experiment [2] it was 0.24 µM.

As for `O=C(C1CN(S(=O)(=O)c2ccccc2)C(=O)N1C1CCCCC1)N1CCN(c2ncccc2C(F)(F)F)CC1` (racemic) [Example 39, (RS)-1-Benzenesulfonyl-3-cyclohexyl-4-[4-(3-trifluoromethyl-pyridin-2-yl)-piperazine-1-carbonyl]-imidazolidin-2-one], the figures for the IC50 in experiment [1] and in experiment [2] were 5.5 µM and 0.48 µM, respectively.

For the compound `Cc1ccc(C)c(N2CCN(C(=O)[C@@H]3CN(S(=O)(=O)c4ccccc4)C(=O)N3c3ccccc3Cl)CC2)c1` [Example 50, (S)-1-Benzenesulfonyl-3-(2-chloro-phenyl)-4-[4-(2,5-dimethyl-phenyl)-piperazine-1-carbonyl]-imidazolidin-2-one], the IC50 came out at 0.26 µM in experiment [1] and 0.1 µM in experiment [2].

For the origin of these results see patent US7625902B2, “Imidazolidinone derivatives” (Hoffmann-La Roche Inc., priority 2007, dated 2009).
